Where two headings read alike, the source gives them in different places.
How the values were obtained:
[1] = test system: K562-S human leukemia cell line; test: Preliminary experiments: concentration of toxicant decreasing cell survival by 50%; format: cell-based; details: K562 cells
Protocol: (§1) In vitro protection assays against either methylmercury chloride (MeHgCl) or tert-butyl hydroperoxide (t-BuOOH) were conducted with the K562-S human leukemia cell line (REF #CRL-3343™) obtained from the American Type Culture Collection (ATCC). Cells were cultured in Gibco RPMI 1640 complete growth medium with L-Glutamine (REF #31800-105), NaHCO3 (2 g/L), 10% FBS (REF #080-750), 2% antibiotic-antimycotic from Gibco (REF #15240-062), pH 7.4, and maintained at 37° C. in a 5% CO2 incubator and protected from light.
(§2) An uptake induction step, in a saline buffer containing 125 mM of NaCl; 25 mM of HEPES-NaOH (pH 7.4); 5.6 mM of D(+)-glucose; 4.8 mM KCl; 1.2 mM of KH2PO4; 1.2 mM of CaCl2; and 1.2 mM of MgSO4, was performed prior to adding selenoneine or ergothioneine to the cell medium.^[22,23] Cells were resuspended in triplicate and pre-incubated in the saline buffer at a density of 2×10^6 cells/mL for 20 minutes at 37° C. under slight agitation. Cells were then incubated during 4 hours in the same buffer and conditions but supplemented with the protective agent of interest—either ergothioneine or selenoneine—in the presence of 0.15 mM of reduced glutathione (GSH). […] Results are expressed as the mean±standard error of the mean of triplicates. […]

[2] = test system: human erythroid K562 cells; format: cell-based; details: for Viability of cells exposed to t-BuOOH: 830 μM t-BuOOH 1 h, protective agent 2.5-150 μM, 4 h pre-incubation, FIG. 3
Protocol: (§3) Since selenoneine is the analog of the well-known natural antioxidant and cytoprotectant ergothioneine, its capacity as an antioxidant and cytoprotectant was assessed. To that effect, the capacity of selenoneine to protect cells against the cytotoxic effects induced by t-butyl hydroperoxide (t-BuOOH) and methylmercury chloride (MeHgCl) was assessed. Human erythroid K562 cells expressing the ergothioneine transporter (OCTN1) were exposed to the IC50 values of t-BuOOH and MeHgCl respectively, in the presence of increasing concentrations of either selenoneine or ergothioneine. The cell viability was subsequently assessed using the trypan blue viability exclusion test.^[20]
as §1
as §2, with “(GSH). Concentrations of protective agents, either ergothioneine or selenoneine, used for these experiments were 2.5, 5, 25, 50, 100, and 150 μM (FIGS. 3 and 4).” for “(GSH).”

[3] = test system: human erythroid K562 cells; test: Protection against MeHgCl induced cytotoxicity, trypan blue viability exclusion test; format: cell-based; details: for Viability of cells exposed to MeHgCl: 5 μM MeHgCl overnight (18h), protective agent 2.5-150 μM, 4 h pre-incubation, FIG. 4
Protocol: as §3, §1
An uptake induction step, in a saline buffer containing 125 mM of NaCl; 25 mM of HEPES-NaOH (pH 7.4); 5.6 mM of D(+)-glucose; 4.8 mM KCl; 1.2 mM of KH2PO4; 1.2 mM of CaCl2; and 1.2 mM of MgSO4, was performed prior to adding selenoneine or ergothioneine to the cell medium.^[22,23] Cells were resuspended in triplicate and pre-incubated in the saline buffer at a density of 2×10^6 cells/mL for 20 minutes at 37° C. under slight agitation. Cells were then incubated during 4 hours in the same buffer and conditions but supplemented with the protective agent of interest—either ergothioneine or selenoneine—in the presence of 0.15 mM of reduced glutathione (GSH). Concentrations of protective agents, either ergothioneine or selenoneine, used for these experiments were 2.5, 5, 25, 50, 100, and 150 μM (FIGS. 3 and 4). Cells were then washed twice in cold phosphate-buffered saline (PBS) and resuspended in complete RPMI growth medium and divided into two groups at a density of 1×10^6 cells/mL. One group of cells remained untreated (control group) while the other group was treated with either 830 μM of t-BuOOH, or 5 μM of MeHgCl. These concentrations were determined to decrease cell survival by 50% in preliminary experiments (IC50 values). Cells were then incubated at 37° C. under slight agitation over a period of one (1) hour in the case of t-BuOOH, or overnight (18h) for MeHgCl. The cells were then washed twice in cold PBS before being resuspended in complete RPMI growth medium at a density of 5×10^5 cells/mL. The trypan blue viability exclusion test was then conducted using a Hausser Scientific™ Bright-Line™ Phase Hemacytometer. Viable cells (%)=[total number of viable cells per mL of aliquot/total number of cells per mL of aliquot]×100.^[20] Results are expressed as the mean±standard error of the mean of triplicates. These experiments were repeated twice, and similar results were obtained.

[4] = S at C-5 (ovothiols) versus S at C-2 (ergothioneine); cited from earlier work

CC(C)(C)OO [t-BuOOH, t-butyl hydroperoxide]
IC50 ([1]; Homo sapiens): 830 µM

C[N+](C)(C)[C@@H](Cc1c[nH]c(=S)[nH]1)C(=O)[O-] [ergothioneine]
Viability of cells exposed to t-BuOOH [2]: increased with increasing concentrations
Viability of cells exposed to MeHgCl [3]: increased with increasing concentrations
Cell viability versus control groups at concentrations of 150 μM or higher ([3]; 5 μM MeHgCl, K562 cells, protective agent 150 μM or higher): did not result in cell viabilities comparable to those of the control groups
pKa value [4]: 8.7

C[N+](C)(C)[C@@H](Cc1c[nH]c(=[Se])[nH]1)C(=O)[O-] [selenoneine, (S)-3-(2-selenoxo-2,3-dihydro-1H-imidazol-4-yl)-2-(trimethylammonio) propanoate]
Viability of cells exposed to t-BuOOH [2]: increased with increasing concentrations
Concentration resulting in cell viabilities comparable to those of the control groups ([2]; 830 μM t-BuOOH, K562 cells): ≥ 100 µM
Viability of cells exposed to MeHgCl [3]: increased with increasing concentrations
Concentration resulting in cell viabilities comparable to those of the control groups ([3]; 5 μM MeHgCl, K562 cells): ≥ 100 µM
Protective effect against MeHgCl induced cytotoxicity, comparison ([3]; 5 μM MeHgCl, K562 cells): greater protective effect relative to ergothioneine

[CH3][Hg][Cl] [MeHgCl, methylmercury chloride]
IC50 [1]: 5 µM

Source: patent US20250115557A1, “TOTAL SYNTHESES OF SELENONEINE, ISO-SELENONEINE, AND ISOMERS” (UNIVERSITÉ LAVAL, priority 2022, published 2025)
